Like-named read-outs stand apart in the source and are kept apart here.
Target: T1, DENV NS2B-NS3 protease (Dengue virus type 2, UniProt P29990)
T1 construct: plasmid construct CF40-Gly-NS3pro185; made in house; host or cells: E. coli
Test: NS2B-NS3 protease steady-state kinetic inhibition assay (Boc-GRR-AMC substrate, Dynafit global fit)
Format: biochemical, DEN2V (dengue virus serotype 2)
Conditions: 100 nM NS2B-NS3, cleavage buffer pH 9.5, 25° C., two inhibitor concentrations
Description: The DEN2V protease (plasmid construct CF40-Gly-NS3pro185 (Li et al., The Journal of Biological Chemistry, 280, 28766-28774, 2005)) was expressed in E. coli largely following the previously described protocol (Li et al., The Journal of Biological Chemistry, 280, 28766-28774, 2005), although cell growth was continued for 6 hrs at 25° C. following addition of 0.4 mM IPTG (isopropyl-D-thiogalactopyranoside). Purification was as described previously (Li et al., The Journal of Biological Chemistry, 280, 28766-28774, 2005) using metal affinity chromatography. Purified, concentrated NS2B-NS3pro was stored at −80° C. in cleavage buffer (200 mM Tris pH 9.5, 20% glycerol). The activity of the dengue protease was not impacted by a freeze/thaw cycle (data not shown).
Small molecules identified by virtual screening as potential DEN2V protease inhibitors were tested for inhibition activity using NS2B-NS3 protease steady-state kinetic assays as described previously (Li et al., The Journal of Biological Chemistry, 280, 28766-28774, 2005). Briefly, compounds identified in virtual screening experiments were received from established chemical vendors and tested for solubility at 10 mM in DMSO and upon 100-fold dilution from DMSO into cleavage buffer (i.e., 100 μM final compound concentration in 1% DMSO). […] Sequential 10-fold serial dilutions were used to determine the limits of solubility in cleavage buffer as necessary.
Preliminary single-point inhibition assays (Li et al., The Journal of Biological Chemistry, 280, 28766-28774, 2005) were used to check the inhibition activity of compounds using 100 nM NS2B-NS3 and 100 μM substrate Boc-GRR-AMC in cleavage buffer for 30 minutes at 25° C. Fluorescence measurements (lem=465 nm, lex=380 nm) were performed in duplicate on a Fluorolog FL3-22 spectrofluorometer (Horiba Jobin Yvon) and corrected for compound absorption and emission. […] Two inhibitor concentrations were tested. Fluorescence measurements were recorded at 5 minutes intervals from 0 to 30 minutes; fluorescence intensities were converted to AMC product concentrations using calibration curves established with each compound concentration. Each kinetic study was performed in duplicate, and all experiments were repeated three times to ensure all measured parameters were reproducible in independent experiments. Initial velocities at each substrate concentration were calculated from linear curve fits of AMC production per time. The program Dynafit (Biokin, Watertown, Mass.) (Kuzmic, Anal. Biochem., 237, 260-273, 1996) was used to determine Michalen-Menten inhibition model and kinetic parameters that produced the best global fits to the measured velocity versus substrate kinetic data.
These compounds were advanced to detailed kinetic inhibition assays to determine mechanisms of inhibition and inhibition constants. All experiments were performed using two different inhibitor concentrations and a no inhibitor control. Kinetic parameters and inhibition constants were calculated using a generalized Michaelis-Menten model (FIG. 4) and global fitting to all collected velocity versus substrate concentration data (Table 1). […] Further study will be required to determine whether a particular mechanism of inhibition might be advantageous in regard to efficacy against virus replication and/or delay of escape mutants.

[1] = read-out: Inhibition constant Ki2 (binding to enzyme-substrate ES complex)
[2] = read-out: Inhibition constant Ki1 (competitive component, binding to enzyme)
[3] = read-out: Inhibition constant Ki3 (binding to ES2 complex)
[4] = Inhibition constant Ki1 (competitive component, binding to enzyme)

T1 sequence (P29990 1476-1653): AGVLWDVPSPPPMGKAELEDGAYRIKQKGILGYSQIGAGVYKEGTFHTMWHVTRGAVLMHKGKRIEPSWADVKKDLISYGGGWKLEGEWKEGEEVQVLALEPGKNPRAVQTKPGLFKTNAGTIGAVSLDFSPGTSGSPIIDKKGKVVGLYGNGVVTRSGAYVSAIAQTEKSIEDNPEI

Row | SMILES | Ki [1] [µM] | Ki [2] [µM] | also measured
1 | Cn1c(=O)c2cc3ccccc3nc2c2c(=O)n(-c3ccccc3)c(=O)n(-c3ccccc3)c21 [ZINC01042004] | 28 |  | 
2 | Cc1nn(-c2ccccc2)nc1C(=O)Nc1nnc(Sc2ccnc3cc(Cl)ccc23)s1 [ZINC08647752] |  | 60 | Ki [3]: 14 µM
3 | c1ccc2c(-c3nnc(-c4ccc5nccnc5c4)o3)cccc2c1 [ZINC00156657] | 45 | 95 | 
4 | O=C(NNC(=NS(=O)(=O)c1ccccc1)NNC(=O)c1cccc(Cl)c1)c1cccc(Cl)c1 [ZINC12339756] |  |  | Ki [3]: 64 µM
5 | NS(=O)(=O)c1cccc(-c2ccc([C@H]3Nc4ccccc4-c4nc5ccccc5n43)o2)c1 [ZINC01032664] | 56 |  | 
6 | Cc1ccc(-n2ncc3c2CC(C)(C)C[C@@H]3NC(=O)c2cn(C)c3ccccc3c2=O)cc1 [ZINC12702527] | 421 | 288 | 
7 | O=C1Cc2ccc(F)cc2C[C@@H]1C1=Cc2ccc(F)cc2CC1 [ZINC04321905] |  | 85 | 
8 | c1ccc(CSc2nnc3nc4c5ccccc5c5ccccc5c4nn23)cc1 [ZINC03120327] |  |  | Ki [4]: 42 µM; Ki (Inhibition constant Ki2 (binding to enzyme-substrate ES complex)): 21 µM
9 | O=C1[C@H]2CSC3(C(=O)c4ccccc4C3=O)N2C(=O)[C@H]2CSC3(C(=O)c4ccccc4C3=O)N12 [ZINC03129319] |  |  | Ki [4]: 92 µM; Ki (Inhibition constant Ki3 (binding to ES2 complex)): 20 µM
10 | Cc1ccc(S(=O)(=O)Nc2ccc(Cn3cnc(-c4nc(-c5cccc(C)c5)no4)c3)cc2)cc1 [ZINC32974777] | 21 | 106 | 
11 | O=C(Nc1cccc(-c2nnc(Cc3ccc4c(c3)OCO4)o2)c1)Nc1ccc2c(c1)CCC2 [ZINC21359030] | 4 |  | 
12 | Cc1ccn2c(=O)cc(COc3cc(NC(=O)Nc4ccc5c(c4)OCCO5)ccc3C)nc2c1 [ZINC33068105] | 4 | 39 | 

— patent publication US9408813B2, “Small-molecule inhibitors of dengue virus proteases” (THE BOARD OF REGENTS OF THE UNIVERSITY OF TEXAS SYSTEM, priority 2013, dated 2016)
